Measurements published in paper PMC8185074, “Anchor extension: a structure-guided approach to design cyclic peptides targeting enzyme active sites” (Nature Communications, 2021).
Peptide text beside a SMILES is read from it.

Legend:
Assay type in all cases: biochemical
[1] = molecular target: T1, HDAC1 (Homo sapiens, UniProt Q13547); assay: HDAC1 inhibition, full IC50 measurement (Reaction Biology; fluorogenic p53 peptide RHKK(Ac)AMC); settings: for HDAC1 activity raw data (signal): t1/t2 replicates
T1 construct: purchased Reaction Biology Corporation (assay run by the CRO)
Outline: (§1)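 The reaction was a 1 h, 30 °C incubation of enzyme, acoustically added peptide and 50 μM p53-derived AMC substrate in pH 8.0 Tris buffer with NaCl, KCl, MgCl2, 1 mg/ml BSA and 1% DMSO. Duplicate values were averaged.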

[2] = molecular target: T2, HDAC2 (Homo sapiens, UniProt Q92769); assay: HDAC2 inhibition, full IC50 measurement (Reaction Biology; fluorogenic p53 peptide RHKK(Ac)AMC)
T2 construct: purchased Reaction Biology Corporation (assay run by the CRO)
Outline: as §1

[3] = molecular target: T2, HDAC2; assay: Initial HDAC2 IC50 estimate (BPS Biosciences HDAC fluorogenic assay kit); settings: Supplementary Dataset 2; read-out: HDAC2 activity (initial activity)
Outline: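 Inhibition measured by kit-based fluorogenic HDAC activity assays, with each point in duplicate or triplicate. Values come from a full 1 µM–100 pM series (1:10 steps) or are range estimates from just 20 nM and 200 nM.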

[4] = molecular target: T3, HDAC8 (Homo sapiens, UniProt Q9BY41); assay: HDAC8 inhibition, full IC50 measurement (Reaction Biology; fluorogenic p53 peptide RHKK(Ac)AMC); settings: for HDAC8 activity raw data (signal): t1/t2 replicates
T3 construct: purchased Reaction Biology Corporation (assay run by the CRO)
T3 sequence (Q9BY41 1-377): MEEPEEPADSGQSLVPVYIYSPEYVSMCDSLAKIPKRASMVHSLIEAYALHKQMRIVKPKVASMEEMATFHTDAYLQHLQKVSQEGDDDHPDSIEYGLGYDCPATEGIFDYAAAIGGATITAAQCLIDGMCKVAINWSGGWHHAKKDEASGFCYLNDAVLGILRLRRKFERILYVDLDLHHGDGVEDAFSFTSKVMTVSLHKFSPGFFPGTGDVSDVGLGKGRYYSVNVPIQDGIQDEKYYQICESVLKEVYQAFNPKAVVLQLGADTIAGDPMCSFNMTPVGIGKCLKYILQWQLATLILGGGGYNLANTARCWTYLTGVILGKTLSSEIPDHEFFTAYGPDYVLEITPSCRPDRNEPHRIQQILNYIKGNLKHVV
Outline: as §1

[5] = peptide conc. 1.00E-05 M, listed as des4.2.0_t1
[6] = peptide conc. 1.00E-05 M, listed as des4.2.0_t2
[7] = peptide conc. 1.11E-06 M, listed as des4.2.0_t1
[8] = peptide conc. 1.11E-06 M, listed as des4.2.0_t2
[9] = peptide conc. 1.23E-07 M, listed as des4.2.0_t1
[10] = peptide conc. 1.23E-07 M, listed as des4.2.0_t2
[11] = peptide conc. 1.37E-08 M, listed as des4.2.0_t1
[12] = peptide conc. 1.37E-08 M, listed as des4.2.0_t2
[13] = peptide conc. 1.52E-09 M, listed as des4.2.0_t1
[14] = peptide conc. 1.52E-09 M, listed as des4.2.0_t2
[15] = peptide conc. 3.33E-06 M, listed as des4.2.0_t1
[16] = peptide conc. 3.33E-06 M, listed as des4.2.0_t2
[17] = peptide conc. 3.70E-07 M, listed as des4.2.0_t1
[18] = peptide conc. 3.70E-07 M, listed as des4.2.0_t2
[19] = peptide conc. 4.12E-08 M, listed as des4.2.0_t1
[20] = peptide conc. 4.12E-08 M, listed as des4.2.0_t2
[21] = peptide conc. 4.57E-09 M, listed as des4.2.0_t1
[22] = peptide conc. 4.57E-09 M, listed as des4.2.0_t2
[23] = peptide conc. 5.08E-10 M, listed as des4.2.0_t1
[24] = peptide conc. 5.08E-10 M, listed as des4.2.0_t2

T2 sequence (Q92769 whole entry): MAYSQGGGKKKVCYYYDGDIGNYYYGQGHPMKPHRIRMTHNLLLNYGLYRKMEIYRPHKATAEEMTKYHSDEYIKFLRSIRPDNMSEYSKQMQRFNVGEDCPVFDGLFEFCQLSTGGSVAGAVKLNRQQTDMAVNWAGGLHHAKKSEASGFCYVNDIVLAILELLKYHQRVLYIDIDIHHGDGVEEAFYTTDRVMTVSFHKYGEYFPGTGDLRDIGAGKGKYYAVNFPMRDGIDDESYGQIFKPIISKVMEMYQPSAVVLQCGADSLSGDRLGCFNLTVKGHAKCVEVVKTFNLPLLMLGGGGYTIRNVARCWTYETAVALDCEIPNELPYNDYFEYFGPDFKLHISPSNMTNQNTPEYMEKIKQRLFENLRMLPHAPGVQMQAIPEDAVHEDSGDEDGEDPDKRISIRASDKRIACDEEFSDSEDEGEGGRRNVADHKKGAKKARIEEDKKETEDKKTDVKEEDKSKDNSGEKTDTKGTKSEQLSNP
T1 sequence (Q13547 whole entry): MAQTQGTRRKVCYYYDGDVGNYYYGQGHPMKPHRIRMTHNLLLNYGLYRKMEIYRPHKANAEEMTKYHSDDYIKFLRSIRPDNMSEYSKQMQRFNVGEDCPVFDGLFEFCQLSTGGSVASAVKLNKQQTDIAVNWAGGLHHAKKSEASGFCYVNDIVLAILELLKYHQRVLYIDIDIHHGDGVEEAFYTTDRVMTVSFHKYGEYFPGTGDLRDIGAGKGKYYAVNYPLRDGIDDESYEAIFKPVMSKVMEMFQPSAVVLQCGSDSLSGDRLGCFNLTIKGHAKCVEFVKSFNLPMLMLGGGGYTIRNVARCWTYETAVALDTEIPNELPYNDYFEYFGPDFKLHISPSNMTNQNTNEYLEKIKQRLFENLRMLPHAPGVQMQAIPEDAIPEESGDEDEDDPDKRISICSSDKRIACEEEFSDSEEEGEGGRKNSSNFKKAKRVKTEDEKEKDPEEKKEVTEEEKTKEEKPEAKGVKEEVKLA

CC(C)[C@@H]1NC(=O)[C@H](CCCNC(=N)N)NC(=O)[C@@H](CC(=O)O)NC(=O)[C@H](CO)NC(=O)[C@@H](CO)NC(=O)[C@@H](CCC(=O)O)NC(=O)[C@H](Cc2ccc(O)cc2)NC(=O)[C@H](CCCCCS)NC1=O [des4.2.0, SHA-Tyr-dGlu-dSer-Ser-dAsp-Arg-Val] (HELM PEPTIDE1{R.V.[O=C([C@H](CCCCCS)N[*:1])[*:2]].Y.[dE].[dS].S.[dD]}$PEPTIDE1,PEPTIDE1,1:R1-8:R2$$$V2.0)
IC50 ([1]; Supp. Table 1): 58.2 nM | HDAC1 activity raw data (signal) [1, 5]: 11630 | HDAC1 activity raw data (signal) [1, 6]: 12995 | HDAC1 activity raw data (signal) [1, 7]: 76613 | HDAC1 activity raw data (signal) [1, 8]: 123433 | HDAC1 activity raw data (signal) [1, 9]: 411114 | HDAC1 activity raw data (signal) [1, 10]: 418507 | HDAC1 activity raw data (signal) [1, 11]: 880188 | HDAC1 activity raw data (signal) [1, 12]: 934141 | HDAC1 activity raw data (signal) [1, 13]: 1108126 | HDAC1 activity raw data (signal) [1, 14]: 1086586 | HDAC1 activity raw data (signal) [1, 15]: 45545 | HDAC1 activity raw data (signal) [1, 16]: 50745 | HDAC1 activity raw data (signal) [1, 17]: 212662 | HDAC1 activity raw data (signal) [1, 18]: 215699 | HDAC1 activity raw data (signal) [1, 19]: 634511 | HDAC1 activity raw data (signal) [1, 20]: 682055 | HDAC1 activity raw data (signal) [1, 21]: 995614 | HDAC1 activity raw data (signal) [1, 22]: 978150 | HDAC1 activity raw data (signal) [1, 23]: 1100683 | HDAC1 activity raw data (signal) [1, 24]: 1179300 | HDAC2 activity raw data (signal) ([2]; Conc. 1.00E-05 M, t1): 20394 | HDAC2 activity raw data (signal) ([2]; Conc. 1.00E-05 M, t2): 38836 | HDAC2 activity raw data (signal) ([2]; Conc. 1.11E-06 M, t1): 480221 | HDAC2 activity raw data (signal) ([2]; Conc. 1.11E-06 M, t2): 475819 | HDAC2 activity raw data (signal) ([2]; Conc. 1.23E-07 M, t1): 1083936 | HDAC2 activity raw data (signal) ([2]; Conc. 1.23E-07 M, t2): 1073630 | HDAC2 activity raw data (signal) ([2]; Conc. 1.37E-08 M, t1): 1586330 | HDAC2 activity raw data (signal) ([2]; Conc. 1.37E-08 M, t2): 1580365 | HDAC2 activity raw data (signal) ([2]; Conc. 1.52E-09 M, t1): 1730890 | HDAC2 activity raw data (signal) ([2]; Conc. 1.52E-09 M, t2): 1745453 | HDAC2 activity raw data (signal) ([2]; Conc. 3.33E-06 M, t1): 208395 | HDAC2 activity raw data (signal) ([2]; Conc. 3.33E-06 M, t2): 205670 | HDAC2 activity raw data (signal) ([2]; Conc. 3.70E-07 M, t1): 726508 | HDAC2 activity raw data (signal) ([2]; Conc. 3.70E-07 M, t2): 767311 | HDAC2 activity raw data (signal) ([2]; Conc. 4.12E-08 M, t1): 1358432 | HDAC2 activity raw data (signal) ([2]; Conc. 4.12E-08 M, t2): 1262650 | HDAC2 activity raw data (signal) ([2]; Conc. 4.57E-09 M, t1): 1679024 | HDAC2 activity raw data (signal) ([2]; Conc. 4.57E-09 M, t2): 1646125 | HDAC2 activity raw data (signal) ([2]; Conc. 5.08E-10 M, t1): 1775852 | HDAC2 activity raw data (signal) ([2]; Conc. 5.08E-10 M, t2): 1816576 | IC50 ([2]; figure legends, Supp. Table 1, read-out: HDAC2 IC50): 214 nM | IC50 [3]: 200 nM | IC50 ([4]; Supp. Table 1): 370 nM | HDAC8 activity raw data (signal) [4, 5]: 92279 | HDAC8 activity raw data (signal) [4, 6]: 81671 | HDAC8 activity raw data (signal) [4, 7]: 396585 | HDAC8 activity raw data (signal) [4, 8]: 434279 | HDAC8 activity raw data (signal) [4, 9]: 727023 | HDAC8 activity raw data (signal) [4, 10]: 752193 | HDAC8 activity raw data (signal) [4, 11]: 1107635 | HDAC8 activity raw data (signal) [4, 12]: 1031405 | HDAC8 activity raw data (signal) [4, 13]: 1115979 | HDAC8 activity raw data (signal) [4, 14]: 1078250 | HDAC8 activity raw data (signal) [4, 15]: 190039 | HDAC8 activity raw data (signal) [4, 16]: 213758 | HDAC8 activity raw data (signal) [4, 17]: 540901 | HDAC8 activity raw data (signal) [4, 18]: 562035 | HDAC8 activity raw data (signal) [4, 19]: 828599 | HDAC8 activity raw data (signal) [4, 20]: 842494 | HDAC8 activity raw data (signal) [4, 21]: 599790 | HDAC8 activity raw data (signal) [4, 22]: 1026390 | HDAC8 activity raw data (signal) [4, 23]: 1085628 | HDAC8 activity raw data (signal) [4, 24]: 1128546
